The source of these data is US10752612B2, “PLK4 inhibitors” (LUDWIG INSTITUTE FOR CANCER RESEARCH LTD, priority 2015, dated 2020).

The test has as its target T1, human Plk4 kinase domain (aa 2-275) (Homo sapiens, UniProt O00444).
T1 construct: purified 6×His-tagged human Plk4 kinase domain (aa 2-275); 6xHis; made in house; host or cells: E. coli
T1 sequence (O00444 2-275): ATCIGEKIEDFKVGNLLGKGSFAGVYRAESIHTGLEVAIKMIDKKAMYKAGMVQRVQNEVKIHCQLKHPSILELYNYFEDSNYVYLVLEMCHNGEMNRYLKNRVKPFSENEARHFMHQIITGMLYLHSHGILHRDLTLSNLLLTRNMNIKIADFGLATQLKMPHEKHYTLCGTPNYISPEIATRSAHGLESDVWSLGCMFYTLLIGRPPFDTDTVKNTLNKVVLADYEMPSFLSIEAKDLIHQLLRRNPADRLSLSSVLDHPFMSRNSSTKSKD
Put plainly: Plk4 kinase assay (ADP-Glo). It is filed as biochemical. As to conditions: Table 1. In outline: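 Enzyme at 2.5-10 nM final, pH 8.0, reacted 4-16 hours at 25° C; ADP generation read by ADP-Glo luminescence. Ki derived from IC50 by Cheng-Prusoff or, for tight binders, Copeland formalism.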
In general terms: In ADP-Glo the light output rises with the ADP produced.
The compound `Cc1cc(Nc2nc(Sc3ccc(NC(=O)C4CC4)cc3)nc(C)c2C)n[nH]1` showed an IC50 below 1000 nM.
`COCCNc1nc(Sc2ccc(NC(=O)C3CC3)cc2)nc(Nc2cc(C)[nH]n2)c1OC` yielded an IC50 below 1000 nM.
In turn, `CNCCN(C)c1nc(Sc2ccc(NC(=O)C3CC3)cc2)nc(Nc2cc(C)[nH]n2)c1OC` had an IC50 of 100 to 1000 nM.
Regarding `COc1c(NCCN(C)C)nc(Sc2ccc(NC(=O)C3CC3)cc2)nc1Nc1cc(C)[nH]n1`, the IC50 lay in the range of 100 to 1000 nM.
Turning to `COc1c(Nc2cc(C)[nH]n2)nc(Sc2ccc(NC(=O)C3CC3)cc2)nc1N(C)CCN(C)C`, the IC50 lay in the range of 100 to 1000 nM.
In the case of `COc1c(Nc2cc(C)[nH]n2)nc(Sc2ccc(NC(=O)C3CC3)cc2)nc1N1CCCCC1`, the IC50 was below 1000 nM.
Turning to `COc1c(Nc2cc(C)[nH]n2)nc(Sc2ccc(NC(=O)C3CC3)cc2)nc1NC(C)C`, the IC50 is below 1000 nM.
The same measure for `COc1c(Nc2cc(C)[nH]n2)nc(Sc2ccc(S(=O)(=O)Cc3cccc([N+](=O)[O-])c3F)cc2)nc1N1CCCCC1`: below 1000 nM; for `COc1c(Nc2cc(C)[nH]n2)nc(Sc2ccc(S(=O)(=O)Cc3cccc([N+](=O)[O-])c3F)cc2)nc1N1CCOCC1`: below 1000 nM.
`COc1c(Nc2cc(C)[nH]n2)nc(Sc2ccc(S(=O)(=O)Cc3cc(F)cc([N+](=O)[O-])c3)cc2)nc1N1CCN(CCN(C)C)CC1` gave an IC50 below 1000 nM.
As for `COc1c(Nc2cc(C)[nH]n2)nc(Sc2ccc(S(=O)(=O)Cc3cccc([N+](=O)[O-])c3Cl)cc2)nc1N1CCN(CCN(C)C)CC1`, the IC50 was below 1000 nM.
`COc1c(Nc2cc(C)[nH]n2)nc(Sc2ccc(S(=O)(=O)Cc3cccc([N+](=O)[O-])c3F)cc2F)nc1N1CCN(CCN(C)C)CC1` displayed a 50% inhibitory concentration (IC50) below 1000 nM.
For the compound `COc1c(Nc2cc(C)[nH]n2)nc(Sc2ccc(S(=O)(=O)Cc3cccc([N+](=O)[O-])c3)cc2F)nc1N1CCOCC1`, the IC50 was below 1000 nM.
Compound `COc1c(Nc2cc(C)[nH]n2)nc(Sc2ccc(S(=O)(=O)Cc3cccc([N+](=O)[O-])c3)cc2F)nc1N1CCOC[C@@H]1C` displayed an IC50 below 1000 nM.
In turn, `COc1c(Nc2cc(C)[nH]n2)nc(Sc2ccc(S(=O)(=O)Cc3cccc([N+](=O)[O-])c3C#N)cc2)nc1N1CCN(CCN(C)C)CC1` returned an IC50 below 1000 nM.
The same measure for `COc1c(Nc2cc(C)[nH]n2)nc(Sc2ccc(S(=O)(=O)Cc3cccc([N+](=O)[O-])c3F)cc2)nc1N1CCC(O)CC1`: below 1000 nM; for `COc1c(Nc2cc(C)[nH]n2)nc(Sc2ccc(S(=O)(=O)Cc3cccc([N+](=O)[O-])c3O)cc2)nc1N1CCN(CCN(C)C)CC1`: below 1000 nM; for `COc1c(Nc2cc(C)[nH]n2)nc(Sc2ccc(S(=O)(=O)Cc3cccc([N+](=O)[O-])c3)cc2)nc1N1C2CCC1COC2`: below 1000 nM.
Compound `COc1c(Nc2cc(C)[nH]n2)nc(Sc2ccc(S(C)(=O)=O)cc2F)nc1N1CCC(CCN(C)C)CC1` displayed an IC50 below 1000 nM.
Take `COc1c(Nc2cc(C)[nH]n2)nc(Sc2ccc(S(C)(=O)=O)cc2F)nc1N1CCN(CCN(C)C)CC1`: the IC50 was below 1000 nM.
`COc1c(Nc2cc(C)[nH]n2)nc(Sc2ccc(S(C)(=O)=O)cc2Cl)nc1N1CCN(CCN(C)C)CC1` had an IC50 below 1000 nM.
The same measure for `COc1c(Nc2cc(C)[nH]n2)nc(Sc2ccc(S(C)(=O)=O)cc2Cl)nc1N1CCC(CCN(C)C)CC1`: below 1000 nM; for `CCS(=O)(=O)c1ccc(Sc2nc(Nc3cc(C)[nH]n3)c(OC)c(N3CCOCC3)n2)c(Cl)c1`: below 1000 nM; for `COc1c(Nc2cc(C)[nH]n2)nc(Sc2ccc(S(=O)(=O)Cc3cccc([N+](=O)[O-])c3F)cc2F)nc1N1CCOC[C@H]1C`: below 1000 nM.
For the compound `COc1c(Nc2cc(C)[nH]n2)nc(Sc2ccc(S(=O)(=O)Cc3cccc([N+](=O)[O-])c3)cc2F)nc1N1CCOC[C@H]1C`, the IC50 is below 1000 nM.
Regarding `CCS(=O)(=O)c1ccc(Sc2nc(Nc3cc(C)[nH]n3)c(OC)c(N3CCN(CCN(C)C)CC3)n2)c(Cl)c1`, the IC50 was below 1000 nM.
Compound `CCS(=O)(=O)c1ccc(Sc2nc(Nc3cc(C)[nH]n3)c(OC)c(N3CCC(CCN(C)C)CC3)n2)c(Cl)c1` showed an IC50 below 1000 nM.
In turn, `CCS(=O)(=O)c1ccc(Sc2nc(Nc3cc(C)[nH]n3)c(OC)c(N3CCN(C)CC3)n2)c(Cl)c1` displayed an IC50 below 1000 nM.
`CCS(=O)(=O)c1ccc(Sc2nc(Nc3cc(C)[nH]n3)c(OC)c(N3CCN(CCN(C)C)CC3)n2)c(F)c1` gave a half-maximal inhibitory concentration (IC50) below 1000 nM.
On to `CCS(=O)(=O)c1ccc(Sc2nc(Nc3cc(C)[nH]n3)c(OC)c(N3CCC(CCN(C)C)CC3)n2)c(F)c1`, for which the IC50 was below 1000 nM.
For the compound `CCS(=O)(=O)c1ccc(Sc2nc(Nc3cc(C)[nH]n3)c(OC)c(N3CCOC[C@@H]3C)n2)c(Cl)c1`, the concentration for half-maximal inhibition (IC50) was below 1000 nM.
As to `COc1c(Nc2cc(C)[nH]n2)nc(Sc2ccc(S(C)(=O)=O)cc2F)nc1N1CCOC[C@@H]1C`, the IC50 was below 1000 nM.
With `COc1c(Nc2cc(C)[nH]n2)nc(Sc2ccc(S(=O)(=O)Cc3cccc(F)c3F)cc2F)nc1N1CCCCC1`, the IC50 was below 1000 nM.
Take `COc1c(Nc2cc(C)[nH]n2)nc(Sc2ccc(S(=O)(=O)Cc3cccc(F)c3F)cc2F)nc1N1CCOCC1`: the IC50 is below 1000 nM.
The same measure for `COc1c(Nc2cc(C)[nH]n2)nc(Sc2ccc(S(=O)(=O)Cc3cccc(F)c3F)cc2F)nc1N1CCN(CCN(C)C)CC1`: below 1000 nM; for `COc1c(Nc2cc(C)[nH]n2)nc(Sc2ccc(S(=O)(=O)Cc3cccc(F)c3F)cc2F)nc1N1CCOC[C@@H]1C`: below 1000 nM.
`COc1c(Nc2cc(C)[nH]n2)nc(Sc2ccc(S(=O)(=O)Cc3c(F)ccc(F)c3F)cc2F)nc1N1CCN(CCN(C)C)CC1` showed an IC50 below 1000 nM.
Turning to `COc1c(Nc2cc(C)[nH]n2)nc(Sc2ccc(S(=O)(=O)Cc3cccc([N+](=O)[O-])c3F)cc2F)nc1N1CCOC[C@@H]1C`, the IC50 was below 1000 nM.
In the case of `COc1c(Nc2cc(C)[nH]n2)nc(Sc2ccc(S(=O)(=O)Cc3cccc([N+](=O)[O-])c3)cc2)nc1N1CCOC[C@@H]1CO`, the IC50 was below 1000 nM.
In the case of `COc1c(Nc2cc(C)[nH]n2)nc(Sc2ccc(S(=O)(=O)Cc3cccc(Cl)c3F)cc2F)nc1N1CCOCC1`, the IC50 was below 1000 nM.
`COc1c(Nc2cc(C)[nH]n2)nc(Sc2ccc(S(=O)(=O)Cc3cccc(Br)c3F)cc2F)nc1N1CCOCC1` showed an IC50 below 1000 nM.
For `COc1c(Nc2cc(C)[nH]n2)nc(Sc2ccc(S(=O)(=O)Cc3c(F)c(F)cc(F)c3F)cc2F)nc1N1CCOCC1`, the IC50 is below 1000 nM.
Consider `COc1c(Nc2cc(C)[nH]n2)nc(Sc2ccc(S(=O)(=O)Cc3cccc(C(F)(F)F)c3F)cc2F)nc1N1CCOCC1`, for which the IC50 is below 1000 nM.
As to `COc1c(Nc2cc(C)[nH]n2)nc(Sc2ccc(S(=O)(=O)Cc3cccc(C#N)c3F)cc2F)nc1N1CCOCC1`, the IC50 was below 1000 nM.
The compound `COc1c(Nc2cc(C)[nH]n2)nc(Sc2ccc(S(=O)(=O)Cc3cccc(N)c3F)cc2F)nc1N1CCOCC1` showed an IC50 below 1000 nM.
The same measure for `COc1c(Nc2cc(C)[nH]n2)nc(Sc2ccc(S(=O)(=O)C(F)c3cccc([N+](=O)[O-])c3F)cc2F)nc1N1CCOCC1` (stereo not drawn): below 1000 nM; for `COC(=O)c1cccc(CS(=O)(=O)c2ccc(Sc3nc(Nc4cc(C)[nH]n4)c(OC)c(N4CCOCC4)n3)c(F)c2)c1F`: below 1000 nM.
Compound `COc1c(Nc2cc(C)[nH]n2)nc(Sc2ccc(S(=O)(=O)Cc3cccc(C(=O)N(C)C)c3F)cc2F)nc1N1CCOCC1` had an IC50 below 1000 nM.
With `COc1c(Nc2cc(C)[nH]n2)nc(Sc2ccc(S(=O)(=O)Cc3cccc(C(N)=O)c3F)cc2F)nc1N1CCOCC1`, the IC50 was below 1000 nM.
The same measure for `COc1c(Nc2cc(C)[nH]n2)nc(Sc2ccc(S(=O)(=O)Cc3cccc([N+](=O)[O-])c3F)cc2F)nc1N1CCOC[C@@H]1CO`: below 1000 nM; for `COc1c(Nc2cc(C)[nH]n2)nc(Sc2ccc(S(=O)(=O)Cc3cccc(Br)c3F)cc2F)nc1N1CCCCC1`: below 1000 nM.
As to `COc1c(Nc2cc(C)[nH]n2)nc(Sc2ccc(S(=O)(=O)Cc3cccc(I)c3F)cc2F)nc1N1CCOCC1`, the IC50 is below 1000 nM.
In the case of `COc1c(Nc2cc(C)[nH]n2)nc(Sc2ccc(S(=O)(=O)c3cccc([N+](=O)[O-])c3)cc2F)nc1N1CCOCC1`, the IC50 is below 1000 nM.
On to `COc1c(Nc2cc(C)[nH]n2)nc(Sc2ccc(C(=O)Nc3cccc([N+](=O)[O-])c3F)cc2F)nc1N1CCOCC1`, for which the IC50 was below 1000 nM.
Turning to `COc1c(Nc2cc(C)[nH]n2)nc(Sc2ccc(S(=O)(=O)C(F)c3cccc([N+](=O)[O-])c3F)cc2F)nc1N1CCN(CCN(C)C)CC1` (stereo not drawn), the IC50 was below 1000 nM.
The same measure for `COc1c(Nc2cc(C)[nH]n2)nc(Sc2ccc(C#Cc3cccc([N+](=O)[O-])c3F)cc2F)nc1N1CCOCC1`: below 1000 nM; for `COc1c(Nc2cc(C)[nH]n2)nc(Sc2ccc(/C=C/c3cccc([N+](=O)[O-])c3F)cc2F)nc1N1CCOCC1`: below 1000 nM.
`COc1c(Nc2cc(C)[nH]n2)nc(Sc2ccc(CCc3cccc([N+](=O)[O-])c3F)cc2F)nc1N1CCOCC1`: the IC50 is below 1000 nM.
Compound `COc1c(Nc2cc(C)[nH]n2)nc(Sc2ccc(-c3cc4cccc([N+](=O)[O-])c4o3)cc2F)nc1N1CCOCC1` showed an IC50 below 1000 nM.
Take `COc1c(Nc2cc(C)[nH]n2)nc(Sc2ccc(C(=O)Cc3cccc([N+](=O)[O-])c3F)cc2F)nc1N1CCOCC1`: the IC50 is below 1000 nM.
The same measure for `COc1c(Nc2cc(C)[nH]n2)nc(Sc2ccc(C(=O)Oc3cccc([N+](=O)[O-])c3F)cc2F)nc1N1CCOCC1`: below 1000 nM; for `COc1c(Nc2cc(C)[nH]n2)nc(Sc2ccc(S(=O)(=O)C(C)(C)c3cccc([N+](=O)[O-])c3F)cc2F)nc1N1CCOCC1`: below 1000 nM.
For the compound `COc1c(Nc2cc(C)[nH]n2)nc(Sc2ccc(NC(=O)c3cccc([N+](=O)[O-])c3F)cc2F)nc1N1CCOCC1`, the IC50 lay within 100 to 1000 nM.

A word on the IC50: it is the concentration needed to halve the response being measured.
